Experimental data as given in patent US20240287138A1, “CYCLIC PEPTIDES FOR INHIBITING TNF RECEPTOR 1 ACTIVITY” (Merck Sharp & Dohme LLC, priority 2023, published 2024).
Numbered stars: 1 amine (or outer) side, 2 acyl side, 3 side chain; on linkers, the order of the positions; unused ones are H or OH. Bridge positions count the residues as written; N and C are the ends. Square brackets hold non-standard residues; d marks the D form. Peptide text beside a SMILES is read from it. Trp(βS-Me,7-OMe) = COc1cccc2c([C@H](C)[C@H](N)C(=O)O)c[nH]c12; Trp(βS-Me) = C[C@@H](c1c[nH]c2ccccc12)[C@H](N)C(=O)O; Phe(4-SO3H) = N[C@@H](Cc1ccc(S(=O)(=O)O)cc1)C(=O)O; Trp(7-CN) = N#Cc1cccc2c(C[C@H](N)C(=O)O)c[nH]c12; Trp(7-Cl) = N[C@@H](Cc1c[nH]c2c(Cl)cccc12)C(=O)O; Ala(piperazin-1-yl) = N[C@@H](CN1CCNCC1)C(=O)O; Phe(4-CONH2) = NC(=O)c1ccc(C[C@H](N)C(=O)O)cc1; Phe(4-COOH) = N[C@@H](Cc1ccc(C(=O)O)cc1)C(=O)O; 4Pal(3S-Me) = C[C@@H](c1ccncc1)[C@H](N)C(=O)O; αMeW = C[C@](N)(Cc1c[nH]c2ccccc12)C(=O)O; X1 = O=C([C@@H]1CC[C@H](N[*:1])C1)[*:2]; dPro(3S-OH) = O=C(O)[C@@H]1NCC[C@@H]1O; 2Nal = N[C@@H](Cc1ccc2ccccc2c1)C(=O)O; Pip(4-aza) = O=C(O)[C@@H]1CNCCN1; 3Pal = N[C@@H](Cc1cccnc1)C(=O)O; 4Pal = N[C@@H](Cc1ccncc1)C(=O)O; NMeE = CN[C@@H](CCC(=O)O)C(=O)O; dHyp = O=C(O)[C@H]1C[C@H](O)CN1; Ahp(2) = CCCCC[C@H](N)C(=O)O; αMeS = C[C@](N)(CO)C(=O)O; Nle = CCCC[C@H](N)C(=O)O; Sar = CNCC(=O)O

Target: T1, human soluble TNFR1 (sTNFR1) (Homo sapiens, UniProt P19438)
T1 construct: made in house; host or cells: Sf21 (baculovirus)
T1 sequence (P19438 with tags, fused parts or gaps): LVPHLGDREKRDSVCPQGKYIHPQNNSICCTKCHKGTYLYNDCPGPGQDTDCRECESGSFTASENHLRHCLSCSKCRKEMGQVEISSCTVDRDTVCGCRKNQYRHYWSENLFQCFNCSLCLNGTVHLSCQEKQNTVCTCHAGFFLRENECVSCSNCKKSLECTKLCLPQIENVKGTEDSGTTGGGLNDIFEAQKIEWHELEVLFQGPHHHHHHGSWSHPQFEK
Assay: Human sTNFR1-peptide displacement assay (LanthaScreen Eu TR-FRET binding assay)
Protocol: A. Procedure for Human sTNFR1-Peptide Displacement Assay
The affinity was determined using LanthaScreen Eu-based time-resolved fluorescence resonance energy transfer (TR-FRET)-based binding assay.
A TR-FRET assay measuring the displacement of biotinylated peptide SEQ ID NO. 1 from human soluble TNFR1 (sTNFR1) in a pre-formed complex by a macrocyclic peptide yields the affinity (Kd^app) of the cyclic peptide for sTNFR1. The reagents for the assay include: the C′-terminally 6His-tagged sTNFR1 (residues 1-211) protein purified from a Sf21 baculovirus expression system, the biotin-tagged B0372 peptide described in section “Preparation of Final Compounds”, part E, the LanthaScreen™ anti-His Tag Europium donor (Life Technologies Corporation (San Diego, CA), cat. #PV5597), and a streptavidin-conjugate Alexa Fluor™ 647 acceptor (Invitrogen (Waltham, MA), cat. #S32357). Time-resolved TR-FRET is achieved when sTNFR1 is bound to biotinylated peptide SEQ ID NO. 1 through coupling of the donor and acceptor FRET pair.
100 nM biotinylated peptide SEQ ID NO. […] 100 nM biotinylated peptide SEQ ID NO. 1 was chosen as it reflects the ˜Kd for this complex. After 30 min at ambient temperature, each test peptide (2 mM stock in DMSO) is titrated in a 20 point, ˜3-fold discrete dose-response using an acoustic-dispense liquid handler. Specifically, 80 nL of peptide/DMSO is transferred into a ProxiPlate-384 Plus 384-well assay plate (PerkinElmer, cat. #6008289). To this plate, 8 μL of the previously formed sTNFR 1-biotinylated peptide SEQ ID NO. 1 complex is added and allowed to reach binding equilibrium with the test peptide at ambient temperature for 90 min.
The TR-FRET signal is measured with the following EnVision® settings: excitation laser at 337 nm; emission1=615 nm, emission2=665 nm, LANCE/DELFIA dichroic mirror, delay time=[…]. The signal of each well is determined as the ratio of the emission at 665 nm to that at 615 nm. Percent displacement is determined by normalization to control wells containing DMSO (0%) or a saturating concentration of a displaceable peptide (100%). The %-effect as a function of peptide concentration is fit to a five-parameter logistic fit based on the Morrison equation to account for tight binding kinetics.

| SMILES | Kd [nM] | IC50 [nM] |
| --- | --- | --- |
| CCCC[C@@H]1NC(=O)[C@@H]2CC[C@@H](C2)NC(=O)[C@H]([C@@H](C)c2c[nH]c3c(OC)cccc23)NC(=O)CN(C)C(=O)[C@H](Cc2ccc(O)cc2)NC(=O)[C@H](Cc2ccc(C(=O)O)cc2)NC(=O)[C@](C)(CO)NC(=O)[C@H](Cc2c[nH]c3c(Cl)cccc23)NC(=O)[C@H](Cc2ccc(S(=O)(=O)O)cc2)NC(=O)[C@H](CC(N)=O)NC(=O)[C@H](CCC(=O)O)N(C)C(=O)[C@H](Cc2c[nH]c3ccccc23)NC(=O)[C@@H]2CNCCN2C(=O)[C@H](Cc2ccncc2)NC1=O [SEQ ID NO. 173] (cyclo([4Pal][Pip(4-aza)]W[NMeE]N[Phe(4-SO3H)][Trp(7-Cl)][αMeS][Phe(4-COOH)]Y[Sar][Trp(βS-Me,7-OMe)][X1][Nle])) | 0.26 | – |
| CCCC[C@@H]1NC(=O)[C@@H]2CC[C@@H](C2)NC(=O)[C@H]([C@@H](C)c2c[nH]c3c(OC)cccc23)NC(=O)CN(C)C(=O)[C@H](Cc2ccc(O)cc2)NC(=O)[C@H](Cc2ccc(C(=O)O)cc2)NC(=O)[C@](C)(CO)NC(=O)[C@H](Cc2c[nH]c3c(Cl)cccc23)NC(=O)[C@H](Cc2ccncc2)NC(=O)[C@H](CC(N)=O)NC(=O)[C@H]2[C@@H](O)CCN2C(=O)[C@H](Cc2c[nH]c3ccccc23)NC(=O)[C@@H]2CNCCN2C(=O)[C@H](Cc2ccncc2)NC1=O [SEQ ID NO. 192] (cyclo([4Pal][Trp(7-Cl)][αMeS][Phe(4-COOH)]Y[Sar][Trp(βS-Me,7-OMe)][X1][Nle][4Pal][Pip(4-aza)]W[dPro(3S-OH)]N)) | 0.24 | – |
| CCCCC[C@@H]1NC(=O)CSC[C@@H](C(N)=O)NC(=O)[C@](C)(Cc2c[nH]c3ccccc23)NC(=O)CN(C)C(=O)[C@H](Cc2cccnc2)NC(=O)[C@H](Cc2ccc(C(=O)O)cc2)NC(=O)[C@](C)(CO)NC(=O)[C@H](Cc2c[nH]c3c(Cl)cccc23)NC(=O)[C@H](Cc2ccncc2)NC(=O)[C@H](CC(N)=O)NC(=O)[C@H]2CCCN2C(=O)[C@H]([C@@H](C)c2c[nH]c3ccccc23)NC(=O)[C@H](CN2CCNCC2)NC(=O)[C@H](Cc2ccc(O)cc2)NC1=O [SEQ ID NO. 226] ({CH2CO}-[Ahp(2)]Y[Ala(piperazin-1-yl)][Trp(βS-Me)][dP]N[4Pal][Trp(7-Cl)][αMeS][Phe(4-COOH)][3Pal][Sar][αMeW]C-NH2; thioether N-14) | – | 1.16 |
| CCCCC[C@@H]1NC(=O)[C@@H]2CC[C@@H](C2)NC(=O)[C@H]([C@@H](C)c2c[nH]c3c(OC)cccc23)NC(=O)CN(C)C(=O)[C@H](Cc2ccc(C(N)=O)cc2)NC(=O)[C@H](Cc2ccc(C(N)=O)cc2)NC(=O)[C@](C)(CO)NC(=O)[C@H](Cc2c[nH]c3c(C#N)cccc23)NC(=O)[C@H](Cc2ccc(C(=O)O)cc2)NC(=O)[C@H](CC(N)=O)NC(=O)[C@H]2C[C@H](O)CN2C(=O)[C@H](Cc2c[nH]c3ccccc23)NC(=O)[C@H]([C@@H](C)O)NC(=O)[C@H]([C@@H](C)c2ccncc2)NC1=O [SEQ ID NO. 234] (cyclo([Ahp(2)][4Pal(3S-Me)]TW[dHyp]N[Phe(4-COOH)][Trp(7-CN)][αMeS][Phe(4-CONH2)][Phe(4-CONH2)][Sar][Trp(βS-Me,7-OMe)][X1])) | 0.24 | – |
| CCCCC[C@@H]1NC(=O)CSC[C@@H](C(N)=O)NC(=O)[C@](C)(Cc2c[nH]c3ccccc23)NC(=O)CN(C)C(=O)[C@H](Cc2c[nH]cn2)NC(=O)[C@H](Cc2ccc(C(=O)O)cc2)NC(=O)[C@](C)(CO)NC(=O)[C@H](Cc2ccc3ccccc3c2)NC(=O)[C@H](Cc2ccc(C(=O)O)cc2)NC(=O)[C@H](CC(N)=O)NC(=O)[C@H]2CCCN2C(=O)[C@H]([C@@H](C)c2c[nH]c3ccccc23)NC(=O)[C@H](CO)NC(=O)[C@H](Cc2ccncc2)NC1=O [SEQ ID NO. 237] ({CH2CO}-[Ahp(2)][4Pal]S[Trp(βS-Me)][dP]N[Phe(4-COOH)][2Nal][αMeS][Phe(4-COOH)]H[Sar][αMeW]C-NH2; thioether N-14) | – | 13 |
